# Reference: patent publication US9040547B2, “Pyrrolopyrimidine and purine derivatives” (PFIZER INC., priority 2011, dated 2015)
# pIC50: −log10 of the molar value.
# Assays:
# Format in all cases: cell-based
# [1] = molecular target: T1, EGFR L858R, endogenous (Homo sapiens, UniProt P00533, L858R); experiment: pEGFR Y1068 ELISA assay, NCI-H3255 cells; settings: value marked (H3255): NCI-H3255 cells, 2 hrs compound treatment; read-out: pEGFRY1068 ELISA3T3 L858R IC50 (nM), (H3255)
# T1 construct: NCI-H3255 (EGFR L858R, endogenous); endogenous in cells; host or cells: NCI-H3255
# T1 sequence (P00533 25-1210 L858R): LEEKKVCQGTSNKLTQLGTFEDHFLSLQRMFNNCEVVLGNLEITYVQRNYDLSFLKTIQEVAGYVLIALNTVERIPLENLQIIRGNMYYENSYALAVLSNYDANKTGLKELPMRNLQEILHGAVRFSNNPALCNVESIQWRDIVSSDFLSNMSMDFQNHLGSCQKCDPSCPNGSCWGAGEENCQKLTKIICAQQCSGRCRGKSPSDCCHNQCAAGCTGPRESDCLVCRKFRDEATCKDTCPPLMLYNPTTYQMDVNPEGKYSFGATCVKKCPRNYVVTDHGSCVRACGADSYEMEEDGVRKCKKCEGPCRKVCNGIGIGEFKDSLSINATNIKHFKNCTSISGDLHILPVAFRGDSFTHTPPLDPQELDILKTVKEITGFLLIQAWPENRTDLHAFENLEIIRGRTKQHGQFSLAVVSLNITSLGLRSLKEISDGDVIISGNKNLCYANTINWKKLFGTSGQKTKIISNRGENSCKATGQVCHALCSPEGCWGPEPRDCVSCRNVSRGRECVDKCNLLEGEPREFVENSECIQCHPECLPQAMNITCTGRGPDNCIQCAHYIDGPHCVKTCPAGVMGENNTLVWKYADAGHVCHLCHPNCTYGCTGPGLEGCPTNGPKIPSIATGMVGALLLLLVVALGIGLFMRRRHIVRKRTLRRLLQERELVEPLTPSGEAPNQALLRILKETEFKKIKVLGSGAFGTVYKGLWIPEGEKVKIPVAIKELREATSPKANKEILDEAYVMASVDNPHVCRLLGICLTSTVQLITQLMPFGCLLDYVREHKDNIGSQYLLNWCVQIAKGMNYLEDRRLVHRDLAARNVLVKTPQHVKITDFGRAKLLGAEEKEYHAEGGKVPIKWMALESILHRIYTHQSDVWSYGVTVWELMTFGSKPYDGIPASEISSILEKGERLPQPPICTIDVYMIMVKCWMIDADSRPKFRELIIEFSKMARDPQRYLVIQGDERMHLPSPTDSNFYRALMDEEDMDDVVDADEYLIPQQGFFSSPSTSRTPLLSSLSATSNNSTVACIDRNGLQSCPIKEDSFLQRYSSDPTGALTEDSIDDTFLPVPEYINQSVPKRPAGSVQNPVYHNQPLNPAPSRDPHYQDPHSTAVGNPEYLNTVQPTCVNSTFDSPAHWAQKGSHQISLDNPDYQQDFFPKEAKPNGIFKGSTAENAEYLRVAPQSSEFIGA
# [2] = molecular target: T2, EGFR Del (PC9) (Homo sapiens, UniProt P00533, DEL746-750); experiment: EGFR ELISA, PC9 Del cells; settings: read-out: EGFR_ELISA9E PC9 Del IC50;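 further: cellular EGFR autophosphorylation at Tyr1068 quantified by sandwich ELISA of cell lysates after 2 h compound exposure at 37 °C, 11-point threefold dilution series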
# T2 construct: endogenous in cells; host or cells: PC-9
# T2 sequence (P00533 with tags, fused parts or gaps DEL746-750): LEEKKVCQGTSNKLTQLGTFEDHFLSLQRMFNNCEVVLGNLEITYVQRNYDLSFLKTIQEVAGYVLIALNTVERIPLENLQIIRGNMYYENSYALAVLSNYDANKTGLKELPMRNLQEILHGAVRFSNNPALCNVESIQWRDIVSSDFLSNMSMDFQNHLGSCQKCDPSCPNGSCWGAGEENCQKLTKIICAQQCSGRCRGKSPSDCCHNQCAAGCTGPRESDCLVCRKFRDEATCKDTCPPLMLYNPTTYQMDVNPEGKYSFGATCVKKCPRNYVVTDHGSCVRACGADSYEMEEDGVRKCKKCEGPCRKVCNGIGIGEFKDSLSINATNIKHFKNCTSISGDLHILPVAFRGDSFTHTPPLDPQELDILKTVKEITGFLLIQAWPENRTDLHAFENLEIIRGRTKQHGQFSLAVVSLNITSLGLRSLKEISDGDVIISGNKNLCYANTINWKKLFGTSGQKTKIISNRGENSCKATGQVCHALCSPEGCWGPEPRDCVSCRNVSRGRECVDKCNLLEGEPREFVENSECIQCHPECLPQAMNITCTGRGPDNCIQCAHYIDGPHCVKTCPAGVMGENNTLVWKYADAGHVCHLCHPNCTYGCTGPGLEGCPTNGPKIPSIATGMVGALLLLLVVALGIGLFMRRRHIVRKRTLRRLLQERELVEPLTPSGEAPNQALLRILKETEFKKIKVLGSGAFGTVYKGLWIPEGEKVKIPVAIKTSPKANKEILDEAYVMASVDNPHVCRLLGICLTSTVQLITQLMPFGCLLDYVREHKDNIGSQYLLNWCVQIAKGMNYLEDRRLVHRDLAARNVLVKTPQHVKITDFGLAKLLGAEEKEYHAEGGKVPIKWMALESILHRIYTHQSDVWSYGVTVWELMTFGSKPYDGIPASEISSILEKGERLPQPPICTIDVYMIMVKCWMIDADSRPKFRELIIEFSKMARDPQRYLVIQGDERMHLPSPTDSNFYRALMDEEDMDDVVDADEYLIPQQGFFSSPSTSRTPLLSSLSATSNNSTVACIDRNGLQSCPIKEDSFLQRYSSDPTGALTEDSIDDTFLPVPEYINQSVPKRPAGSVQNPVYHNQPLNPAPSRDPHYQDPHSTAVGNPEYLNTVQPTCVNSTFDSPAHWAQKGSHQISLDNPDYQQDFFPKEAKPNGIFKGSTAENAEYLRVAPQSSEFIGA
# [3] = molecular target: T3, EGFR L858R+T790M, endogenous (Homo sapiens, UniProt P00533, L858R/T790M); experiment: pEGFR Y1068 ELISA assay, NCI-H1975 cells; settings: value marked (H1975): NCI-H1975 cells, 2 hrs compound treatment; read-out: pEGFRY1068 ELISA3T3T790M—L858R IC50 (nM), (H1975);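 further: sandwich ELISA of endogenous phospho-EGFR (Tyr1068) in lysates of treated cells, 11-point 1:3 serial dilution tested in duplicate per plate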
# T3 construct: NCI-H1975 (EGFR L858R+T790M, endogenous); host or cells: NCI-H1975
# [4] = molecular target: T4, EGFR wildtype, endogenous (Homo sapiens, UniProt P00533); experiment: pEGFR Y1068 ELISA assay, A549 cells; settings: full serum media, stimulated 10 min with EGF (40 ng/mL), read-out: pEGFRY1068 ELISAA549 IC50;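 further: sandwich ELISA of phospho-EGFR Tyr1068 in cell lysates, cells exposed to compound for 2 h before EGF stimulation, 11-point threefold dilution series run in duplicate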
# T4 construct: A549 (EGFR wildtype, endogenous); host or cells: A549
# T4 sequence (P00533 25-1210): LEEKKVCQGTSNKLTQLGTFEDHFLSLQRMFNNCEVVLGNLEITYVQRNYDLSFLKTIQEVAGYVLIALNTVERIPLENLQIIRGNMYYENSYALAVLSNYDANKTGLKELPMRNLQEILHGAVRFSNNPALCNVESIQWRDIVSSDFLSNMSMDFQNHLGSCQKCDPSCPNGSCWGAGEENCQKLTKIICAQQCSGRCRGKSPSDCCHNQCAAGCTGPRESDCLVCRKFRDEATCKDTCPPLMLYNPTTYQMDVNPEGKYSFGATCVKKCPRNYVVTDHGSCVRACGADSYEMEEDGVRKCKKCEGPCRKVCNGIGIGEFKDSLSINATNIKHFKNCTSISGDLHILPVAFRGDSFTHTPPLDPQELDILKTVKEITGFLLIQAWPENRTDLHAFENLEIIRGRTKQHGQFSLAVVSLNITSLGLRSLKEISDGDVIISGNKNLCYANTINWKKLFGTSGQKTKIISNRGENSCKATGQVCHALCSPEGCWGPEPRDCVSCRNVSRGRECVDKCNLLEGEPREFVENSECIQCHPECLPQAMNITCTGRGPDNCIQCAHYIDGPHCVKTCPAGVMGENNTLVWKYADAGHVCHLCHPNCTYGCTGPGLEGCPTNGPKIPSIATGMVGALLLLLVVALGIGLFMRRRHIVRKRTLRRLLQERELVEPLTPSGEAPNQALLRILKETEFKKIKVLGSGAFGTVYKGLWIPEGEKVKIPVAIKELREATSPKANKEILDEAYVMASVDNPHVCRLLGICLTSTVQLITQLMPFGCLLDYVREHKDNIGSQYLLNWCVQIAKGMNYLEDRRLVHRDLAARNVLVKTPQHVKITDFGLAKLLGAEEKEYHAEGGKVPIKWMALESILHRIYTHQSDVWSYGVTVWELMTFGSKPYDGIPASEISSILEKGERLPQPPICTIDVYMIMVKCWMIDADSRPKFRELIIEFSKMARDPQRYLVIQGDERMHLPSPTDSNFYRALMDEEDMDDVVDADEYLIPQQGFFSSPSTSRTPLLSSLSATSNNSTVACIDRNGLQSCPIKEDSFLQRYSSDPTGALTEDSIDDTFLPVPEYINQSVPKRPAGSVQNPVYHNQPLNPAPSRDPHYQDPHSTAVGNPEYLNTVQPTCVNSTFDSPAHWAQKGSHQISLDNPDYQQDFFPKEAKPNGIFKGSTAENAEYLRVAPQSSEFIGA
# [5] = tested on: NIH3T3/EGFR L858R+T790M; experiment: Cell proliferation assay (CellTiter-Glo), NIH3T3/EGFR L858R+T790M; settings: Mus musculus, NIH3T3, 120 h, 3T3 cell line, three to five days of compound treatment, read-out: 3T3 L858R_T790M IC50
# [6] = tested on: PC-9; experiment: Cell proliferation assay (CellTiter-Glo), PC-9; settings: Homo sapiens, value marked (PC9), read-out: 3T3 del IC50, (PC9)
# Description: (§1) Cell proliferation was measured using the CellTiter-Glo® Luminescent Cell Viability Assay. The assay involves the addition of a single reagent (CellTiter-Glo® Reagent) directly to cells cultured in serum-supplemented medium. The assay uses this one-step addition to induce cell lysis and generate a luminescent signal proportional to the amount of ATP present which is directly proportional to the number of metabolically active cells present in culture. The following cell lines were evaluated in this assay: NIH3T3/EGFR_L858R, NIH3T3/EGFR_E746-A750_deletion, NIH3T3/EGFR L858R+T790M, NIH3T3/EGFR_E746-A750_deletion+T790M, PC-9, PC9-DRH, NCI-H1975, and NCI-H3255. NIH/3T3 parental cells, NCI-H1975, and NCI-H3255 were purchased from the American Type Culture Collection (Manassas, Va.), and PC-9 cells were obtained from Japan. All cells were cultured according to recommendations. NIH/3T3 cells were grown in DMEM (Invitrogen, Carlsbad, Calif.) supplemented with 10% newborn calf serum (Invitrogen), and NIH3T3/EGFR mutant cells were grown in complete media with 5 μg/mL puromycin (Invitrogen). PC-9, NCI-H1975, and NCI-H3255 were grown in RPMI (Invitrogen, Carlsbad, Calif.) supplemented with 10% FBS (Sigma, St Louis, Mo.), and PC9-DRH cells were grown in complete media with 2 uM PF-00299804. Plasmids (pLPCX) with various EGFR constructs were made by GenScript (Piscataway, N.J.), and stable pools of NIH/3T3 cells expressing these constructs were made at Pfizer La Jolla. PC9-DRH cells were generated at Pfizer La Jolla by exposing cells to increasing concentrations of PF-00299804. Cells were plated in complete culture media (3000-5000 cells/well, 50 μl/well) on the bottom of white clear-bottom tissue culture treated microtiter plates (#3610, Corning Inc, Corning, N.Y.) and allowed to adhere overnight at 37° C., 5% CO2. The following day, compound dilution plates were prepared in 96 well clear V-bottom 0.5 mL polypropylene block plates (#3956, Corning, Inc). All cell lines were not evaluated for each compound. Each compound evaluated was prepared as a DMSO stock solution (10 mM). Compounds were tested in duplicate on each plate, with an 11-point serial dilution curve (1:3 dilution). Compound treatment (50 μl) was added from the compound dilution plate to the cell plate. The highest compound concentration was 1 or 10 μM (final), with a 0.3% final DMSO (#D-5879, Sigma, St Louis, Mo.) concentration. Plates were then incubated at 37° C., 5% CO2. After three to five days of compound treatment, CellTiter-Glo® Reagent (#G7573, Promega, Madison, Wis.) was prepared in one of two ways. If thawing a frozen aliquot of CellTiter-Glo® Reagent, the aliquot was thawed and equilibrated to room temperature prior to use while keeping it protected from light. Alternatively, new bottles of CellTiter-Glo® Buffer and CellTiter-Glo® Substrate were thawed and equilibrated to room temperature prior to use. CellTiter-Glo® Buffer (100 mL) was transferred into the amber bottle containing CellTiter-Glo® Substrate to reconstitute the lyophilized enzyme/substrate mixture, forming the CellTiter-Glo® Reagent. The reconstituted reagent was mixed by gently inverting the contents to obtain a homogeneous solution, and went into solution easily in less than one minute. Any unused reconstituted CellTiter-Glo® Reagent was immediately aliquoted and frozen at −20° C., protected from light. Cell plates were equilibrated at room temperature for approximately 30 minutes. An equivolume amount of CellTiter-Glo® Reagent (100 μL) was added to each well. Plates were mixed for two minutes on an orbital shaker to induce cell lysis, and then allowed to incubate at room temperature for 10 minutes to stabilize the luminescent signal. Luminescence was recorded using the PerkinElmer EnVision Excite Multilabel Reader used for endpoint reading for Luminescence detection (Waltham, Mass.). Data were analyzed using a four-parameter fit in Microsoft Excel. […]
# [7] = tested on: NCI-H3255; experiment: Cell proliferation assay (CellTiter-Glo), NCI-H3255; settings: Homo sapiens, value marked (H3255), read-out: 3T3 L858R IC50, (H3255)
# Description: as §1
# [8] = tested on: PC9-DRH; experiment: Cell proliferation assay (CellTiter-Glo), PC9-DRH; settings: value marked (PC9-DRH), read-out: 3T3 del_T790M IC50, (PC9-DRH)
# Description: as §1
# [9] = molecular target: EGFR L858R+T790M (Homo sapiens, UniProt P00533, L858R/T790M); experiment: pEGFR Y1068 ELISA assay, NIH3T3/EGFR_L858R+T790M cells; settings: 3T3 cell line, 2 hrs compound treatment; read-out: pEGFRY1068 ELISA3T3T790M—L858R IC50;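 further: sandwich ELISA of EGFR phosphorylated at Tyr1068 in lysates of stably transfected NIH/3T3 cells, 11-point threefold dilution series run in duplicate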
# EGFR L858R+T790M, sequence (P00533 25-1210 T790M/L858R): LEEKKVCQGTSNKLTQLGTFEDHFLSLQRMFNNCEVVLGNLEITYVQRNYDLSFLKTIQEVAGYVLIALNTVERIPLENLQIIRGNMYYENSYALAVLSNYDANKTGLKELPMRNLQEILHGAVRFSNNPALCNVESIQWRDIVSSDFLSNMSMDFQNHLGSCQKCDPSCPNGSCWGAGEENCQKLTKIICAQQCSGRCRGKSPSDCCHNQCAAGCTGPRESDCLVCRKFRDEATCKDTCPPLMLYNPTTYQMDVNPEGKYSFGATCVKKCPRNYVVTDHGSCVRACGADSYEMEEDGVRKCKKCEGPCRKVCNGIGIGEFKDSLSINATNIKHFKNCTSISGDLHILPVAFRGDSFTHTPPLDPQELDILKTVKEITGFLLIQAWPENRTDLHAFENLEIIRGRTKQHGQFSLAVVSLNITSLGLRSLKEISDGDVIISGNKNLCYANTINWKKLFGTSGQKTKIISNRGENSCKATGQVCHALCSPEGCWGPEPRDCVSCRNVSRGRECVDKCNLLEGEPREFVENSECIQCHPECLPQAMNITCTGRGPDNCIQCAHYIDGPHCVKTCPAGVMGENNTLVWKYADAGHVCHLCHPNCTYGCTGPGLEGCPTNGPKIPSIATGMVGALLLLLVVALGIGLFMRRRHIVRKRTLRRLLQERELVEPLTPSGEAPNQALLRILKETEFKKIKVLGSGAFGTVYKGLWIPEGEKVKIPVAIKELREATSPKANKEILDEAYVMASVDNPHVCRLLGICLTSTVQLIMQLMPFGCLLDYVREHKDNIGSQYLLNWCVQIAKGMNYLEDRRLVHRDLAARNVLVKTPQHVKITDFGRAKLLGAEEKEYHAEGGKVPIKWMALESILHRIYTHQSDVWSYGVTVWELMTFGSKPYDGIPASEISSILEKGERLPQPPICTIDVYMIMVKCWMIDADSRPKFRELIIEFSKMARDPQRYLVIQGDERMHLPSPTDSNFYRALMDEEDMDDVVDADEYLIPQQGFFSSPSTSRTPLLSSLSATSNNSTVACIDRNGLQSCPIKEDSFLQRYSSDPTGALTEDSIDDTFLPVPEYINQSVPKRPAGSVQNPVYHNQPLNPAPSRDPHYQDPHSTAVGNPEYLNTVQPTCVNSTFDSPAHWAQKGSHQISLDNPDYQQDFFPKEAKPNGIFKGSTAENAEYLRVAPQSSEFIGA
# [10] = tested on: NIH3T3/EGFR_E746-A750_deletion+T790M; experiment: Cell proliferation assay (CellTiter-Glo), NIH3T3/EGFR_E746-A750_deletion+T790M; settings: Mus musculus, NIH3T3, 120 h, 3T3 cell line, three to five days of compound treatment, read-out: 3T3 del_T790M IC50
# Description: as §1
# [11] = molecular target: EGFR L858R (Homo sapiens, UniProt P00533, L858R); experiment: pEGFR Y1068 ELISA assay, NIH3T3/EGFR_L858R cells; settings: 3T3 cell line, 2 hrs compound treatment; read-out: pEGFRY1068 ELISA3T3 L858R IC50;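 further: sandwich ELISA of phospho-EGFR Tyr1068 in lysates of stably transfected NIH/3T3 pools after 2 h compound exposure at 37 °C, 11-point threefold dilution series run in duplicate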
compound,measurement,setting,value
"C=CC(=O)N1C[C@@H]2CN(c3nc(Nc4cnn(C)c4)nc4[nH]cc(Cl)c34)C[C@]2(OC)C1 (single isomer, unassigned) [Example 88]",IC50,[1],41 nM
same,pIC50,[2],6.20
same,IC50,[3],34 nM
"C=CC(=O)N1C[C@H](COc2nc(Nc3cnn(CC(C)O)c3)nc3[nH]cc(Cl)c23)[C@@H](OC)C1 (single isomer, unassigned) [Example 100]",IC50,[1],101 nM
same,pIC50,[2],5.37
same,IC50,[3],153 nM
same,pIC50,[4],< 5.00
"C=CC(=O)N1CCOC2(CCN(c3nc(Nc4cnn(C)c4)nc4[nH]cc(Cl)c34)C2)C1 (single isomer, unassigned) [Example 112]",IC50,[1],241 nM
same,IC50,[3],63 nM
same,pIC50,[4],< 5.00
"C=CC(=O)N[C@H]1C[C@H](Oc2nc(Nc3cnn(C)c3)nc3[nH]cc(-c4ccccn4)c23)C1 [Example 12, N-[trans-3-({2-[(1-methyl-1H-pyrazol-4-yl)amino]-5-(pyridin-2-yl)-7H-pyrrolo[2,3-d]pyrimidin-4-yl}oxy)cyclobutyl]prop-2-enamide]",IC50,[1],782 nM
same,pIC50,[2],5.56
same,IC50,[3],689 nM
same,pIC50,[4],< 5.00
"C=CC(=O)N(C)[C@H]1C[C@H](Oc2nc(Nc3cnn(C)c3)nc3[nH]cc(-c4cccnc4)c23)C1 [Example 13, N-methyl-N-[trans-3-({2-[(1-methyl-1H-pyrazol-4-yl)amino]-5-(pyridin-3-yl)-7H-pyrrolo[2,3-d]pyrimidin-4-yl}oxy)cyclobutyl]prop-2-enamide]",pIC50,[5],6.00 to 7.00
same,IC50,[1],48 nM
same,pIC50,[6],6.00 to 7.00
same,pIC50,[7],6.00 to 7.00
same,pIC50,[2],7.04
same,IC50,[3],89 nM
same,pIC50,[8],6.00 to 7.00
C=CC(=O)N1CC(Nc2nc(Nc3cnn(C)c3)nc3[nH]cc(Cl)c23)C1 [Example 79],IC50,[1],776 nM
same,pIC50,[2],< 5.17
same,IC50,[3],136 nM
same,pIC50,[4],< 5.00
C=CC(=O)N(C)[C@H]1C[C@H](Oc2nc(Nc3cn(C)nc3C#N)nc3[nH]cc(Cl)c23)C1 [Example 80],IC50,[1],273 nM
same,pIC50,[2],6.05
same,IC50,[3],25 nM
same,pIC50,[4],< 5.00
C=CC(=O)N1C[C@H](Nc2nc(Nc3cnn(C)c3)nc3[nH]cc(Cl)c23)[C@H](n2ccnn2)C1 [Example 82],IC50,[1],973 nM
same,pIC50,[2],< 5.00
same,IC50,[3],638 nM
same,pIC50,[4],< 5.00
C=CC(=O)N1C[C@@H]2CN(c3nc(Nc4cnn(C)c4)nc4[nH]cc(Cl)c34)C[C@]2(O)C1 [Example 84],IC50,[1],1100 nM
same,pIC50,[2],5.28
same,IC50,[3],175 nM
C=CC(=O)N1C[C@H](Nc2nc(Nc3cnn(C)c3)nc3[nH]cc(Cl)c23)[C@@H](C(F)F)C1 [Example 85],pIC50,[9],6.72
same,pIC50,[5],7.00 to 8.00
same,IC50,[1],61 nM
same,pIC50,[6],< 6.00
same,pIC50,[7],7.00 to 8.00
same,pIC50,[2],6.81
same,pIC50,[8],6.00 to 7.00
C=CC(=O)N(C)[C@H]1C[C@H](Oc2nc(Nc3cnn(C)c3)nc3[nH]cc(-c4ccn(C)n4)c23)C1 [Example 86],IC50,[1],477 nM
same,pIC50,[2],5.63
same,IC50,[3],266 nM
same,pIC50,[4],< 5.00
C=CC(=O)N(C)[C@H]1C[C@H](Oc2nc(Nc3cnn(C)c3)nc3[nH]cc(-c4ccccn4)c23)C1 [Example 89],pIC50,[5],7.00 to 8.00
same,pIC50,[10],7.00 to 8.00
same,IC50,[1],33 nM
same,pIC50,[6],6.00 to 7.00
same,pIC50,[7],6.00 to 7.00
same,pIC50,[2],7.38
same,IC50,[3],6 nM
same,pIC50,[4],5.78
C=CC(=O)N1C[C@H](COc2nc(Nc3cnn(C)c3)nc3[nH]cc(Cl)c23)[C@@H](F)C1 [Example 90],pIC50,[7],7.00 to 8.00
C=CC(=O)N1C[C@H](COc2nc(Nc3cnn(CC#N)c3)nc3[nH]cc(Cl)c23)[C@@H](OC)C1 [Example 93],IC50,[1],26 nM
same,pIC50,[2],6.42
same,IC50,[3],31 nM
C=CC(=O)N(C)[C@@H]1CCCN(c2nc(Nc3cnn(C)c3)nc3[nH]cc(Cl)c23)C1 [Example 94],IC50,[1],608 nM
same,pIC50,[2],5.35
same,IC50,[3],385 nM
C=CC(=O)N(C)[C@H]1C[C@H](Oc2nc(Nc3cnn(C)c3)nc3[nH]cc(-c4cnn(C)c4)c23)C1 [Example 95],IC50,[1],2440 nM
same,pIC50,[2],5.07
same,IC50,[3],1570 nM
same,pIC50,[4],< 5.00
C=CC(=O)N(C)[C@H]1C[C@H](Nc2nc(Nc3cn(C)nc3C)nc3[nH]cc(Cl)c23)C1 [Example 98],pIC50,[9],7.57
same,pIC50,[5],7.00 to 8.00
same,IC50,[1],139 nM
same,pIC50,[6],6.00 to 7.00
same,pIC50,[7],7.00 to 8.00
same,pIC50,[2],6.33
same,pIC50,[8],7.00 to 8.00
same,pIC50,[4],5.37
C=CC(=O)N1C[C@@H]2CN(c3nc(Nc4cn(C)nc4OC)nc4[nH]cc(Cl)c34)C[C@@H]2C1 [Example 99],pIC50,[9],6.42
same,pIC50,[11],6.32
same,pIC50,[5],6.00 to 7.00
same,pIC50,[6],< 6.00
same,pIC50,[7],< 6.00
same,pIC50,[2],6.09
same,pIC50,[8],6.00 to 7.00
same,pIC50,[4],5.46
C=CC(=O)N[C@]1(C)C[C@@H](Oc2nc(Nc3cnn(C)c3)nc3[nH]cc(Cl)c23)C1 [Example 113],IC50,[1],> 8580 nM
same,pIC50,[2],< 5.00
same,IC50,[3],457 nM
same,pIC50,[4],< 5.00
C=CC(=O)N1C[C@H](COc2nc(Nc3cn(CC#N)nc3C)nc3[nH]cc(Cl)c23)[C@@H](OC)C1 [Example 115],IC50,[1],85 nM
same,pIC50,[2],6.02
same,IC50,[3],73 nM
same,pIC50,[4],< 5.00
C=CC(=O)N(C)[C@H]1C[C@H](Oc2nc(Nc3cnn(CC#N)c3)nc3[nH]cc(Cl)c23)C1 [Example 116],pIC50,[5],7.00 to 8.00
same,IC50,[1],107 nM
same,pIC50,[2],6.48
same,IC50,[3],24 nM
